Experimental data taken from patent publication US20210346359A1, “Use of CFTR Modulators For Treating Cerebrovascular Conditions” (Qanatpharma AG, priority 2018, published 2021).
“Also recorded” adds a separate entry of the source.

What was measured:
[1] = tested on: olfactory cerebral arteries; test: Phenylephrine responses of isolated olfactory cerebral arteries; format: in vivo, mouse; conditions: for phenylephrine dose-response relationship, SAH vs SAH+treatment: not normalized; for log EC50 of phenylephrine response: olfactory cerebral arteries, SAH+treatment group, log scale
Description: (§1) Isolation and functional assessment of resistance arteries: Mouse olfactory (a first branch of the anterior cerebral artery) and PCAs were carefully dissected, cannulated onto micropipettes, stretched to their in vivo lengths and pressurized to 45 mmHg, as previously described (3,6); mouse skeletal muscle resistance arteries were dissected from the cremaster muscle, cannulated and pressurized to 60 mmHg. All functional experiments were conducted in 3-morpholinopropanesulfonic acid (MOPS) buffered saline at 37° C. with no perfusion. Vasomotor responses to phenylephrine (5 μmol/L for posterior cerebral arteries, 10 μmol/L for cremaster skeletal muscle arteries) provided an assessment of vessel viability at the beginning and end of each experiment. Arteries failing to show ≥25% constriction to phenylephrine were excluded.
(§2) Myogenic tone was calculated as the percent constriction in relation to the maximal diameter at each respective transmural pressure: tone (% of diamax)=[(diamax−diaactive)/diamax]×100, where diaactive is the vessel diameter in MOPS containing Ca^2+ and diamax is the diameter in Ca^2+-free MOPS. Analyses of vasomotor responses to phenylephrine used the same calculation, only in this case, diaactive represents the vessel diameter at steady state following application of the given agent and diamax represents the maximal diameter measured under Ca^2+-free conditions.

[2] = tested on: olfactory cerebral arteries; test: Myogenic tone of isolated olfactory cerebral arteries after in vivo treatment; set-up: species or system mouse
Description: Induction of Subarachnoid Hemorrhage: A well-characterized model of experimental SAH (6) was used. Briefly, each mouse was anaesthetized (isoflurane) and its head was fixed in a stereotactic frame: a 7 mm incision was made along the midline of the anterior scalp and 0.9 mm hole drilled into the skull 4.5 mm anterior to the bregma. A spinal needle was advanced to the chiasmatic cistern: 80 μl of arterial blood was injected into the intracranial space over 10 seconds. […] Following injection, the scalp incision was closed. Buprenorphine (0.05 mg/kg; 0.5-1.0 ml volume) was administered twice/day (initiated immediately following the SAH surgical procedure). Sham-operated animals underwent an identical surgical procedure, with sterile saline injected instead of blood. Olfactory cerebral arteries were isolated at 2 days post-SAH induction.
as §1, with “Vasomotor responses to phenylephrine (5 μmol/L for posterior cerebral arteries, 10 μmol/L for cremaster skeletal muscle arteries) provided an assessment of vessel viability at the beginning and end of each experiment. Arteries failing to show ≥25% constriction to phenylephrine were excluded.” left out
Myogenic responses were elicited by step-wise 20 mmHg increases in transmural pressure from 20 mmHg to 80 mmHg (olfactory arteries) or 100 mmHg (posterior cerebral arteries and cremaster skeletal muscle resistance arteries). At each pressure step, vessel diameter (diaactive) was measured once a steady state was reached (5 min). Vessels requiring treatment (e.g., CFTR(inh)-172) were incubated with the reagent in MOPS for 30 min and myogenic responses were then assessed in the presence of that reagent. Following completion of all diaactive measurements, MOPS buffer was replaced with a Ca^2+-free version and maximal passive diameter (diamax) was recorded at each pressure step.
as §2

[3] = tested on: mice with subarachnoid hemorrhage; test: MRI (FAIR) cerebral blood flow in subarachnoid hemorrhage mice; format: in vivo, mouse; conditions: SAH mice, 3 mg/kg daily for 2 days
From the text: As described previously (10-12), we utilized a flow-sensitive alternating inversion recovery (FAIR) magnetic resonance imaging (MRI) technique (13) to evaluate cerebral blood flow (CBF). During imaging, mice were immobilized with 1.8% isoflurane delivered through a nose cone. To maintain body temperature, the MRI is equipped with embedded tubes that convect water from an external heater-pump. Respiration was monitored using a pneumatic pillow (SA Instruments, Stonybrook, USA); isoflurane levels were adjusted to maintain respiration at approximately 50 breaths/minute.
FAIR images were obtained using a 7 Tesla micro-MRI system (BioSpec 70/30 USR, Bruker BioSpin, Ettlingen, Germany), including the B-GA12 gradient insert, 72 mm inner diameter linear volume resonator for RF transmission, and anteriorly placed head coil for RF reception. […] FAIR images were evaluated by manual prescription (MIPAV, NIH, Bethesda, MD; http://mipav.cit.nih.gov) of sub-hemispheric regions-of-interest (ROIs), termed ‘global’, and local ROIs corresponding to cortical and sub-cortical parenchyma in forebrain sections; cortical and paraventricular parenchyma in middle sections; and cortical and midbrain parenchyma in hindbrain sections. […]

[4] = olfactory cerebral arteries from SAH mice, 3 mg/kg i.p. daily for 2 days, 3 mg/kg
[5] = arteries from SAH mice, in vivo 3 mg/kg daily for 2 days

Row | log EC50 of phenylephrine response [1] | SMILES | phenylephrine dose-response relationship ([1]; olfactory cerebral arteries from CFTR knockout mice, 3 mg/kg i.p. daily for 2 days, 3 mg/kg) | phenylephrine dose-response relationship normalized to basal tone, SAH vs SAH+C18 [1, 4] | phenylephrine dose-response relationship, SAH vs SAH+treatment [1, 4] | phenylephrine dose-response relationship ([1]; olfactory cerebral arteries from sham-operated mice, 3 mg/kg i.p. daily for 2 days, 3 mg/kg) | olfactory cerebral artery myogenic tone ([2]; arteries from CFTR knockout mice, in vivo 3 mg/kg daily for 2 days) | olfactory cerebral artery myogenic tone [2, 5] | olfactory cerebral artery myogenic tone ([2]; arteries from sham-operated mice, 3 mg/kg i.p. daily for 2 days, 3 mg/kg) | cerebral blood flow / cerebral perfusion [3]
1 | −6.61±0.31 | O=C(Nc1ncc(C(c2ccccc2Cl)N2CCC(O)C2)s1)C1(c2ccc3c(c2)OCO3)CC1 (stereo not shown) [C18, 1-(benzo[d][1,3]dioxol-5-yl)-N-(5-((2-chlorophenyl)(3-hydroxypyrrolidin-1-yl)methyl)thiazol-2-yl)cyclopropanecarboxamide] | not affected; also recorded: does not alter | curves overlap; also recorded: minimal | expected baseline shift; also recorded: not statistically different | does not affect; also recorded: does not alter | not susceptible; also recorded: not observed | normalizes; also recorded: reduces | does not affect; also recorded: does not alter | restores; also recorded: significantly improves
2 | −5.90±0.18 | Cc1ccc(NC(=O)C2(c3ccc4c(c3)OC(F)(F)O4)CC2)nc1-c1cccc(C(=O)O)c1 [lumacaftor] | – | – | does not affect; also recorded: does not alter | – | – | normalizes; also recorded: reduces | – | normalizes; also recorded: significantly improves
